Assay results: patent US20120034193A1, “TREATMENT OF NEUROTROPHIC FACTOR MEDIATED DISORDERS” (priority 2009, published 2012)

Columns and labels:
Rat cortical neurones = assay: Neuritogenesis in cortical neurones; type: cell-based; conditions: 24 h; for Neurones displaying neurites (%): control 39.35 ± 2.06
Experimental: Rat cortical neurones were cultured by modification of a previously described method (Singer, et al., Neuroscience Letters, 1996, 212, pp. 13-16). Cells were cultured with sarsasapogenin, smilagenin, vehicle (DMSO 0.25%), GDNF, BDNF or NGF for 24 h. For each group, 15 pictures showing neurones displaying neurites were selected at random in each field, and for each neurone the longest neurite was measured. The neurite number was measured by counting the number of neurones displaying neurites, the number of neurones not displaying neurites and the number of total neurones in each field. Six fields per well were examined.
The results are shown in Table 15 below, expressed as the number of neurones with neurites per field as a percentage of the total number of neurones per field.

trkB mRNA = trkB mRNA expression in rat cortical neurones under basal conditions (rt RT-PCR); type: cell-based; conditions: 30 nM
Experimental: (§1) Rat cortical neurones were cultured by modification of a method previously described (Singer, et al., Neuroscience Letters, 1996, 212, pp. 13-16). Twelve days after the start of culturing, sarsasapogenin (30 nM), smilagenin (30 nM), 4-methylcatechol (0.5 mM), an inducer of NGF and BDNF release (Saporito et al., Experimental Neurology., 1993, 123, pp. 295-302; Nitta et al., Journal of Pharmacology and Experimental Therapeutics, 1999, 291, pp. 1276-1283) or vehicle (dimethyl sulfoxide, DMSO, 0.25%) were added for 1, 3 or 6 h. After incubation the total messenger ribonucleic acid (mRNA) was quantified using real time reverse transcription-polymerase chain reaction (rt RT-PCR).

BDNF = assay: Brain BDNF in aged rats (ELISA); type: in vivo, Sprague Dawley (SD) rats; conditions: 18 mg/kg/day oral, 3 months, aged 1.21, young 1.65
Experimental: Old Sprague Dawley (SD) rats (20 month old) were orally administered sarsasapogenin or smilagenin (18 mg/kg/day) for 3 months. […] Young SD rats (4 month old) were used as healthy positive control. At the end of the treatment the brains removed for quantification of BDNF using an ELISA.

[1] = tested on: Rat dopaminergic neurones; assay: Pre-treatment against MPP+-induced loss of dopaminergic neurones; type: cell-based; conditions: 30 nM, 24 h before and during MPP+ 2 μM 48 h
Experimental: Rat dopaminergic neurones were cultured as previously described (Schinelli et al., Journal of Neurochemistry, 1988, 50, pp. 1900-1907). On day 5, the cultures were washed and placed in fresh medium containing test compounds (30 nM), vehicle (DMSO, 0.25%) or a combination of BDNF (1.85 nM) and GDNF (0.17 nM) for 24 h.
Exposure of rat primary dopaminergic neurones to MPP^+ (2 μM, 24 h) causes a significant decrease in the number of dopaminergic neurones compared to the control. On day 6, MPP^+ (2 μM) was added to the cultures in the presence of test compounds, vehicle or a combination of BDNF and GDNF for a further 48 h. MPP^+ induces neuronal death, via inhibition of complex I in the mitochondria and consequent ATP depletion, resulting in the production of free radicals and induction of apoptosis. After the incubation period, the cultures were fixed with paraformaldehyde in PBS (4%). After fixation, the neurones were permeabilised with Triton ×100 (0.05%) for 30 min. The neurones were then incubated with anti-tyrosine hydroxylase (TH) at 37° C. for 2 h. The neurones were washed three times with PBS, and then incubated with goat anti mouse/Cy3 for 2 h at 37° C. The neurones were mounted and examined with the fluorescence microscopy.

BDNF mRNA = BDNF mRNA expression in rat cortical neurones under basal conditions (rt RT-PCR); type: cell-based; conditions: 30 nM
Experimental: as §1

[2] = tested on: Rat spinal motor neurones; assay: Reversal of glutamate-induced damage in spinal motor neurones; type: cell-based
Experimental: The rat spinal motor neurones were prepared as detailed above. On day 10, the medium was removed and the cultures exposed to glutamate (4 μM) for 10 min at 37° C. in 5% CO2/95% air atmosphere in defined medium. After the glutamate exposure, cultures were washed with DMEM at 37° C. then placed in fresh culture medium containing sarsasapogenin, smilagenin, vehicle or BDNF. After 48 h, the extent of motor neurone damage was determined as detailed above. This Example develops the work reported in Example 8 of PCT patent application No. WO-A-03/082893.

[3] = tested on: rat primary cortical neurones; assay: Inhibition of induced neurite outgrowth by K252a or PD98059; type: cell-based; conditions: 30 nM, 24 h
Experimental: (§2) Cortical neurones were cultured as detailed above. Neurones were exposed to vehicle (DMSO, 0.25%) or K252a (100 nM) for 1 h. After 1 h, vehicle, sarsasapogenin, smilagenin (30 nM) or BDNF (1.85 nM) was added to the medium in the maintained presence of K252a. Following 24 h exposure to sarsasapogenin or smilagenin (30 nM), vehicle (DMSO, 0.25%) or BDNF (1.85 nM), the neurones were washed using phosphate-buffered saline (PBS) and fixed in glutaraldehyde (2.5%) in PBS. Photographs of 40-60 neurones expressing neurites were taken with a camera fixed on a microscope (objective ×20, Nikon). The neurite length was measured by an analysis of the photographs.
as §2, with “PD98059 (10 μM)” for “K252a (100 nM)”, “vehicle,” for “vehicle, sarsasapogenin,”, “PD98059.” for “K252a.”, “to” for “to sarsasapogenin or”, “PBS” for “phosphate-buffered saline (PBS)”

[4] = 0.03 nM for 48 h after glutamate 4 μM 10 min
[5] = 3 nM for 48 h after glutamate 4 μM 10 min
[6] = 300 nM for 48 h after glutamate 4 μM 10 min

**Q.** For `C[C@H]1CC[C@@]2(OC1)O[C@H]1C[C@H]3[C@@H]4CC[C@@H]5C[C@@H](O)CC[C@]5(C)[C@H]4CC[C@]3(C)[C@H]1[C@@H]2C` [Sarsasapogenin, sarsasapogenin], which “Neurite length (% of control)” value (Rat cortical neurones; 3 nM) is on record?
**A.** 168.29 ± 6.12 % of control

**Q.** And the “Neurones displaying neurites (%)” value (Rat cortical neurones; 3 nM)?
**A.** 52.40 ± 2.63 %

**Q.** And the “Neurite length (% of control)” value (Rat cortical neurones; 30 nM)?
**A.** 156.74 ± 4.06 % of control

**Q.** And the “Neurones displaying neurites (%)” value (Rat cortical neurones; 30 nM)?
**A.** 57.32 ± 2.54 %

**Q.** What about the “trkB mRNA, % increase above control” value (trkB mRNA; 1 h) of the same compound?
**A.** No increase

**Q.** What about the “trkB mRNA, % increase above control” value (trkB mRNA; 3 h) of the same compound?
**A.** 33%

**Q.** What about the “trkB mRNA, % increase above control” value (trkB mRNA; 6 h) of the same compound?
**A.** No increase

**Q.** And the “BDNF (ng/g tissue)” value (BDNF)?
**A.** 1.41 ± 0.07 ng/g tissue

**Q.** And the “Neuronal survival (% of control)” value [1]?
**A.** 88.73 ± 4.39 % of control

**Q.** And the “BDNF mRNA, % increase above control” value (BDNF mRNA; 1 h)?
**A.** No increase

**Q.** And the “BDNF mRNA, % increase above control” value (BDNF mRNA; 3 h)?
**A.** 22%

**Q.** What about the “BDNF mRNA, % increase above control” value (BDNF mRNA; 6 h) of the same compound?
**A.** No increase

**Q.** What about the “Neuronal survival (% of control)” value [2, 4] of the same compound?
**A.** 101.09 ± 4.12 % of control

**Q.** What about the “Neuronal survival (% of control)” value [2, 5] of the same compound?
**A.** 108.10 ± 3.56 % of control

**Q.** What about the “Neuronal survival (% of control)” value [2, 6] of the same compound?
**A.** 120.43 ± 7.46 % of control

**Q.** And the “Neurite length (% of control)” value ([3]; no inhibitor)?
**A.** 126.74 ± 5.76^++++ % of control

**Q.** What about the “Neurite length (% of control)” value ([3]; with K252a (100 nM)) of the same compound?
**A.** 93.12 ± 2.88 % of control

**Q.** What does the source list for `C[C@@H]1CC[C@@]2(OC1)O[C@H]1C[C@H]3[C@@H]4CC[C@@H]5C[C@@H](O)CC[C@]5(C)[C@H]4CC[C@]3(C)[C@H]1[C@@H]2C` [Smilagenin, smilagenin]?
**A.** Neurite length (% of control) (Rat cortical neurones; 3 nM): 159.03 ± 4.91 % of control; Neurones displaying neurites (%) (Rat cortical neurones; 3 nM): 53.84 ± 2.93 %; Neurite length (% of control) (Rat cortical neurones; 30 nM): 176.71 ± 6.34 % of control; Neurones displaying neurites (%) (Rat cortical neurones; 30 nM): 53.46 ± 2.13 %; trkB mRNA, % increase above control (trkB mRNA; 1 h): 21%; trkB mRNA, % increase above control (trkB mRNA; 3 h): 55%; trkB mRNA, % increase above control (trkB mRNA; 6 h): No increase; BDNF (ng/g tissue) (BDNF): 1.34 ± 0.07 ng/g tissue; Neuronal survival (% of control) [1]: 97.91 ± 3.63 % of control; BDNF mRNA, % increase above control (BDNF mRNA; 1 h): No increase; BDNF mRNA, % increase above control (BDNF mRNA; 3 h): 40%; BDNF mRNA, % increase above control (BDNF mRNA; 6 h): No increase; Neuronal survival (% of control) [2, 4]: 90.98 ± 2.46 % of control; Neuronal survival (% of control) [2, 5]: 101.53 ± 3.18 % of control; Neuronal survival (% of control) [2, 6]: 106.61 ± 4.24 % of control; Neurite length (% of control) ([3]; no inhibitor): 146.78 ± 6.75^++++ % of control; Neurite length (% of control) ([3]; with K252a (100 nM)): 94.36 ± 3.96 % of control; Neurite length (% of control) ([3]; with PD98059 (10 μM)): 120.27 ± 5.80 % of control
